Measured values reported in patent US20260078135A1, “POLYCYCLIC QUINAZOLINES FOR INHIBITION OF ERBB2” (Enliven Inc., priority 2022, published 2026).

Tests used:
[1] = target: T1, phosphorylated EGFR (pEGFR) (Homo sapiens, UniProt P00533); assay: Detection of phosphorylated EGFR (pEGFR) by AlphaLISA in EGF-stimulated A431 cells; type: cell-based; conditions: A431 cells (10% FBS), 4 hours incubation, EGF 30 ng/mL for 10 minutes
T1 construct: performed to measure phosphorylated EGFR levels using A431 cells (10% FBS); endogenous in cells; host or cells: A431
T1 sequence (P00533 25-1210): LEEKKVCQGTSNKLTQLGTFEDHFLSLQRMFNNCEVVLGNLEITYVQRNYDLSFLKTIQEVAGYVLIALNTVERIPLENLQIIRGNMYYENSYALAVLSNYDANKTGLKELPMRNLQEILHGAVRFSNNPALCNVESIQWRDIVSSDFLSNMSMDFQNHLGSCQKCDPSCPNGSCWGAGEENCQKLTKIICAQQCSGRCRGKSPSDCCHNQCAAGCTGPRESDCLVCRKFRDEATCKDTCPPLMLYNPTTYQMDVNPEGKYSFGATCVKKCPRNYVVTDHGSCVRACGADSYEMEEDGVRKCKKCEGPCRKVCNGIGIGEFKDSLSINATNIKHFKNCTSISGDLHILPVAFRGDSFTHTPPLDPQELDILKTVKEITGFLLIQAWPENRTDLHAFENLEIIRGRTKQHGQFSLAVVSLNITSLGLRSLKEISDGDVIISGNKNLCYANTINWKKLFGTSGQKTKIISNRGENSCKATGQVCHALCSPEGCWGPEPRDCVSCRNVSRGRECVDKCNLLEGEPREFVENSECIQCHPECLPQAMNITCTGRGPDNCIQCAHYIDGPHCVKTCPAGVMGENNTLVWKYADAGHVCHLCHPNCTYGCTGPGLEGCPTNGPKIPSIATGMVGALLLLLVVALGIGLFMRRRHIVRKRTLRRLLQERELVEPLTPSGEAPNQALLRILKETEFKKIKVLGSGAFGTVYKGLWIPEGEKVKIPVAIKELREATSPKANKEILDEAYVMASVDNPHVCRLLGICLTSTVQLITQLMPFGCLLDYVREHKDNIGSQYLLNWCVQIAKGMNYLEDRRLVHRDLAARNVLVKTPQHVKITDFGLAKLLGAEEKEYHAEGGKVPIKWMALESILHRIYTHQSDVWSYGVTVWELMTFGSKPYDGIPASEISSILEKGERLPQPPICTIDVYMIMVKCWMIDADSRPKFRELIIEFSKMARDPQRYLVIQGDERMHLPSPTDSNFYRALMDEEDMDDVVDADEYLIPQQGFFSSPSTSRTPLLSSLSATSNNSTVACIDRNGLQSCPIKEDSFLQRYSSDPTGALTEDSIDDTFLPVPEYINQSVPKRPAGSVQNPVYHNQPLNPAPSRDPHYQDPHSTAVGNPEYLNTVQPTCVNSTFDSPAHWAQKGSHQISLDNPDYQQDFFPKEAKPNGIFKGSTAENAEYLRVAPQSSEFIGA
Method: Enzyme-linked immunosorbent assays (ELISA) were performed to measure phosphorylated EGFR levels using A431 cells (10% FBS). A431 (1.0*10^4 cells/40 μl/well) cells were seeded in 384 well. Compounds were dissolved in DMSO, serially diluted in DMSO and then were added, mixed, and incubated for 4 hours at 37° C., 5% C02. Following the 4-hours incubation, cells were stimulated for 10 minutes with EGF (Invitrogen, cat #PHG0311) at a final concentration of 30 ng/mL in the incubator. The media was aspirated and cells were lysed in 10 μL lysis buffer with protease and phosphatase inhibitors (PerkinElmer, cat #ALSU-PEGFR-A50K). The plates were placed on a shaker for 5 μminutes and then incubated for 30 min at 4° C. for complete lysis. The lysate was transferred to an Optiplate (Perkin Elmer, cat #6007290).
Acceptor mix (PerkinElmer, cat #ALSU-PEGFR-A50K) was prepared just before use and 5 μL was dispensed to all the wells, followed by a 1.5-2 h incubation at room temperature in dark. The donor mix (PerkinElmer, cat #ALSU-PEGFR-A50K) was prepared under low light conditions prior to use and 5 μl of donor mix was added to all the wells under subdued lighting or green filters. The plates were placed on a shaker for 5 μmin, sealed, and incubated overnight at room temperature in dark. Plates were read on the Envision (PerkinElmer) using standard AlphaLISA settings.
The percentage of inhibition on EGFR phosphorylation was calculated following equation: % Inhibition=100×(LumHC−LumSample)/(LumHC−LumLC). The low and high controls (LC/HC) are generated from lysate from wells with cells treated with DMSO or […] Staurosporine (BioAustralis, cat #BIA-S1086), […]. IC50 values were calculated by fitting the Curve using XLfit (v5.3.1.3), equation 201: Y=Bottom+(Top−Bottom)/(1+10^((Log IC50−X)*HillSlope)).

[2] = target: T2, phosphorylated ERBB2 (pERBB2) (Homo sapiens, UniProt P04626); assay: Detection of phosphorylated ERBB2 (pERBB2) by ELISA in BT-474 cells; type: cell-based; conditions: four hour incubation
T2 construct: endogenous in cells; host or cells: BT-474
T2 sequence (P04626 23-1255): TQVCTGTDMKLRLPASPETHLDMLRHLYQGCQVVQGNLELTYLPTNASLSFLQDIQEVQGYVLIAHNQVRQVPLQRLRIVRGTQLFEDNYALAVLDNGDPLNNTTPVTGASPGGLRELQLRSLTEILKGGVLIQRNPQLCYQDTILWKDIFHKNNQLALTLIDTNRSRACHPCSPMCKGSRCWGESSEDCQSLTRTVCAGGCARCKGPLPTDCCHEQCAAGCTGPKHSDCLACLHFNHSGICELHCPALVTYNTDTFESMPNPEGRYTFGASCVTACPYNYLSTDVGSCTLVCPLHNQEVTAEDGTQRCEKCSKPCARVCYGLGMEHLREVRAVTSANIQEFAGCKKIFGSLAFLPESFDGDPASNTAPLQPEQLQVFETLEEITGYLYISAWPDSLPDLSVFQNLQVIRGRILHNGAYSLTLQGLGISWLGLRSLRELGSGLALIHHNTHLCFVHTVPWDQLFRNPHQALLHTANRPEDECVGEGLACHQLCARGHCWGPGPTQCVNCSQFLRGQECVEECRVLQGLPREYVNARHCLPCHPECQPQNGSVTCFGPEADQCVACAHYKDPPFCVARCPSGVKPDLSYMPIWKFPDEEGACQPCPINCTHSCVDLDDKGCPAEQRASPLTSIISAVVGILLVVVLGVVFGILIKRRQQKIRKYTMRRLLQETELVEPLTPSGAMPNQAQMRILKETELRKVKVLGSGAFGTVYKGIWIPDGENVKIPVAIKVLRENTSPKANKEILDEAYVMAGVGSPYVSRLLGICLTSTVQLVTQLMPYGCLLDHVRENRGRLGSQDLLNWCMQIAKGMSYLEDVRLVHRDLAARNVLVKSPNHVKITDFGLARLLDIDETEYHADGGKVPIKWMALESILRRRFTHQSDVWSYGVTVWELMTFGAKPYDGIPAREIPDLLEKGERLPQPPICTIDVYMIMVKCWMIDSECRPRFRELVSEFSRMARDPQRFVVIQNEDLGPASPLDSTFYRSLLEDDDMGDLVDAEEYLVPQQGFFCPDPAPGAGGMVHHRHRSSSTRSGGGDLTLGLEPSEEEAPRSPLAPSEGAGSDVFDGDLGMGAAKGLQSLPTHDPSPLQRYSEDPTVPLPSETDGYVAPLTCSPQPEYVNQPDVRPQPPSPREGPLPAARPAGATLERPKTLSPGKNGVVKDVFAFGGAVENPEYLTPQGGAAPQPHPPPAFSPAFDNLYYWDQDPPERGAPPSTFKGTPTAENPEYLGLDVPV
Method: BT-474 cells were seeded into a 96-well at 2.0*10^4 cells/100 μl/well. Compounds were dissolved and serially diluted in DMSO. The compounds were then were added, mixed, and incubated for four hours at 37° C., 5% CO2. Compounds were added using four-fold dilutions at final concentrations ranging from 10 μM to 0.01 nM. Following the four hour incubation with compounds, cell lysates were prepared. Plates were centrifuged for 5 μmin at 3000 RPM, and supernatant was removed from each well. Cells were washed 3 times by resuspension in 150 μl PBS, followed by centrifugation and removal of the supernatant, as above. 100 μl of cell lysis buffer (Boston BioProducts, cat #BP-115D) supplied with 1× complete ULTRA cocktail inhibitor (Thermo ScientificTM, cat #78443) was then added to the washed cells. Cells were incubated with lysis buffer for 1 hour at 4° C., and then stored at -80° C. Enzyme-linked immunosorbent assays (ELISA) were performed to measure phosphorylated ERBB2 levels. […] The next day, plates were washed with PBS+0.05% Tween20 (PBST). 150 μl of 5% BSA blocking solution was added for 1 hour at room temperature, with shaking. Plates were washed with PBST. Cell lysates were thawed and 100 μl of lysate was added to the ELISA plate. The plates were incubated for 2 hours at room temperature, with shaking. ELISA plates were then washed with PBST and 100 μl of an HRP-labeled detection antibody that binds phosphorylated tyrosine (R&D Systems, cat #841913) was added to each well. Plates were incubated for 1 hour at room temperature, with shaking. Plates were then washed with PBST, and 100 μl TMB substrate solution (R&D Systems, cat #DY999) was added. Plate were incubated in the dark for 20 minutes at room temperature. 50 μl of Stop solution (R&D Systems, cat #DY994) (50 μl) was added to each well and mixed. Optical density at 450 nm was read on an EnSpire plate reader (Perkin Elmer). The remaining kinase activity by calculated using the following formula: % Relative activity=100×([…]). The low and high control values (“LC” and “HC”) were generated from lysate from wells without cells or with cells treated with 0.1% DMSO, respectively.

IC50 [1]	IC50 [2]	SMILES
> 10000 nM	31.5 nM	Cc1cc(Nc2ncnc3ccc4c(c23)OC[C@H]2CN(C)CCN42)ccc1Oc1ccn2ncnc2c1 [Compound 42, (R)—N-(4-([1,2,4]triazolo[1,5-a]pyridin-7-yloxy)-3-methylphenyl)-8-methyl-6,6a,7,8,9,10-hexahydropyrazino[1′,2′:4,5][1,4]oxazino[2,3-f]quinazolin-4-amine]
> 10000 nM	127 nM	Cc1cc(Nc2ncnc3ccc4c(c23)OC[C@H]2CN4CCN2C)ccc1Oc1ccc2c(c1)ncn2C [Compound 56, (3R)-4-methyl-N-(3-methyl-4-((1-methyl-1H-benzo[d]imidazol-5-yl)oxy)phenyl)-3,4,5,6-tetrahydro-2H-3,7-methano[1,4,7]oxadiazonino[2,3-f]quinazolin-13-amine]
> 10000 nM	417 nM	Cc1cc(Nc2ncnc3ccc4c(c23)OC[C@@H]2CN4CCO2)ccc1Oc1ccn2ncnc2c1 [Compound 72, (3S)—N-(4-([1,2,4]triazolo[1,5-a]pyridin-7-yloxy)-3-methylphenyl)-2,3,5,6-tetrahydro-3,7-methano[1,4,7]dioxazonino[5,6-f]quinazolin-13-amine]
> 10000 nM	153 nM	Cc1cc(Nc2ncnc3cc4c(cc23)N2CCNC[C@@H]2CO4)ccc1Oc1ccc2c(c1)ncn2C [Compound 63, (R)—N-(3-methyl-4-((1-methyl-1H-benzo[d]imidazol-5-yl)oxy)phenyl)-1,2,3,4,4a,5-hexahydropyrazino[1′,2′:4,5][1,4]oxazino[3,2-g]quinazolin-11-amine]
> 10000 nM	108 nM	Cc1cc(Nc2ncnc3ccc4c(c23)OC[C@H]2CN4CCN2)ccc1Oc1ccc2c(c1)ncn2C [Compound 55, (3R)—N-(3-methyl-4-((1-methyl-1H-benzo[d]imidazol-5-yl)oxy)phenyl)-3,4,5,6-tetrahydro-2H-3,7-methano[1,4,7]oxadiazonino[2,3-f]quinazolin-13-amine]
> 10000 nM	118 nM	Cc1cc(Nc2ncnc3cc4c(cc23)N2CCNC[C@H]2CO4)ccc1Oc1ccc2c(c1)ncn2C [Compound 61, (S)—N-(3-methyl-4-((1-methyl-1H-benzo[d]imidazol-5-yl)oxy)phenyl)-1,2,3,4,4a,5-hexahydropyrazino[1′,2′:4,5][1,4]oxazino[3,2-g]quinazolin-11-amine]
> 10000 nM	541 nM	Cc1cc(Nc2ncnc3ccc4c(c23)OC[C@@H]2CN4CCN2)ccc1Oc1ccc2c(c1)ncn2C [Compound 53, (3S)—N-(3-methyl-4-((1-methyl-1H-benzo[d]imidazol-5-yl)oxy)phenyl)-3,4,5,6-tetrahydro-2H-3,7-methano[1,4,7]oxadiazonino[2,3-f]quinazolin-13-amine]
> 10000 nM	91.2 nM	Cc1cc(Nc2ncnc3ccc4c(c23)OC[C@@H]2CNCCN42)ccc1Oc1ccc2c(c1)ncn2C [Compound 47, (S)—N-(3-methyl-4-((1-methyl-1H-benzo[d]imidazol-5-yl)oxy)phenyl)-6,6a,7,8,9,10-hexahydropyrazino[1′,2′:4,5][1,4]oxazino[2,3-f]quinazolin-4-amine]

The next lines start with the molecule.

SMILES	IC50 [1]	IC50 [2]
Cc1cc(Nc2ncnc3cc4c(nc23)N2CCCC[C@H]2CO4)ccc1Oc1ccn2ncnc2c1 [Compound 68, (S)—N-(4-([1,2,4]triazolo[1,5-a]pyridin-7-yloxy)-3-methylphenyl)-1,2,3,4,4a,5-hexahydropyrido[1,2-d]pyrimido[4′,5′:5,6]pyrido[3,2-b][1,4]oxazin-11-amine]	> 10000 nM	55.5 nM
Cc1cc(Nc2ncnc3cc4c(cc23)N2CCNC[C@H]2CO4)ccc1Oc1ccn2ncnc2c1 [Compound 57, (S)—N-(4-([1,2,4]triazolo[1,5-a]pyridin-7-yloxy)-3-methylphenyl)-1,2,3,4,4a,5-hexahydropyrazino[1′,2′:4,5][1,4]oxazino[3,2-g]quinazolin-11-amine]	> 10000 nM	26.7 nM
Cc1cc(Nc2ncnc3cnc4c(c23)OC[C@H]2COCCN42)ccc1Oc1ccn2ncnc2c1 [Compound 106, (R)—N-(4-([1,2,4]triazolo[1,5-a]pyridin-7-yloxy)-3-methylphenyl)-6a,7,9,10-tetrahydro-6H-[1,4]oxazino[4,3-d]pyrimido[5′,4′:4,5]pyrido[3,2-b][1,4]oxazin-4-amine]	> 10000 nM	37.1 nM
Cc1cc(Nc2ncnc3cc4c(nc23)N2CCOC[C@H]2CO4)c(F)cc1Oc1ccn2ncnc2c1 [Compound 103, (S)—N-(4-([1,2,4]triazolo[1,5-a]pyridin-7-yloxy)-2-fluoro-5-methylphenyl)-1,2,4a,5-tetrahydro-4H-[1,4]oxazino[4,3-d]pyrimido[4′,5′:5,6]pyrido[3,2-b][1,4]oxazin-11-amine]	> 10000 nM	154 nM
Cc1ccc(Oc2ccc(Nc3ncnc4cc5c(nc34)N3CCN(C)C[C@H]3CO5)cc2C)cn1 [Compound 73, (S)-3-methyl-N-(3-methyl-4-((6-methylpyridin-3-yl)oxy)phenyl)-1,2,3,4,4a,5-hexahydropyrazino[1,2-d]pyrimido[4′,5′:5,6]pyrido[3,2-b][1,4]oxazin-11-amine]	> 10000 nM	198 nM
Cc1cc(Nc2ncnc3cc4c(nc23)N2CCN(C)C[C@H]2CO4)ccc1Oc1ccc2c(c1)ncn2C [Compound 38, (S)-3-methyl-N-(3-methyl-4-((1-methyl-1H-benzo[d]imidazol-5-yl)oxy)phenyl)-1,2,3,4,4a,5-hexahydropyrazino[1,2-d]pyrimido[4′,5′:5,6]pyrido[3,2-b][1,4]oxazin-11-amine]	> 10000 nM	60.6 nM
Cc1cc(Nc2ncnc3ccc4c(c23)OC[C@H]2CCCCN42)ccc1Oc1ccn2ncnc2c1 [Compound 86, (R)—N-(4-([1,2,4]triazolo[1,5-a]pyridin-7-yloxy)-3-methylphenyl)-6,6a,7,8,9,10-hexahydropyrido[1′,2′:4,5][1,4]oxazino[2,3-f]quinazolin-4-amine]	> 10000 nM	40.7 nM
Cc1cc(Nc2ncnc3cc4c(nc23)N2CC[C@H]2CO4)ccc1Oc1ccn2ncnc2c1 [Compound 70, (S)—N-(4-([1,2,4]triazolo[1,5-a]pyridin-7-yloxy)-3-methylphenyl)-1,2,2a,3-tetrahydroazeto[1,2-d]pyrimido[4′,5′:5,6]pyrido[3,2-b][1,4]oxazin-9-amine]	> 10000 nM	185 nM
Fc1cc(Oc2ccn3ncnc3c2)ccc1Nc1ncnc2cc3c(nc12)N1CCOC[C@H]1CO3 [Compound 104, (S)—N-(4-([1,2,4]triazolo[1,5-a]pyridin-7-yloxy)-2-fluorophenyl)-1,2,4a,5-tetrahydro-4H-[1,4]oxazino[4,3-d]pyrimido[4′,5′:5,6]pyrido[3,2-b][1,4]oxazin-11-amine]	> 10000 nM	495 nM
CC(=O)N1CCN2c3ccc4ncnc(Nc5ccc(Oc6ccn7ncnc7c6)c(C)c5)c4c3OC[C@H]2C1 [Compound 109, (R)-1-(4-((4-([1,2,4]triazolo[1,5-a]pyridin-7-yloxy)-3-methylphenyl)amino)-6a,7,9,10-tetrahydropyrazino[1′,2′:4,5][1,4]oxazino[2,3-f]quinazolin-8(6H)-yl)ethan-1-one]	> 10000 nM	
